Each structure is given as a SMILES string. Like-named read-outs stand apart in the source and are kept apart here.

The target of this assay is BRAF^V600E protein (Homo sapiens, UniProt P15056, V600E). Description: HiBiT cellular BRAF V600E degradation assay. The note with it: for DC50: A375.10 cells (HiBiT tag knocked in at N-terminal of BRAF V600E), concentration at which 50% of total cellular BRAF V600E is degraded; for Emax: read-out: HiBit 24 h Emax. It is filed as cell-based.
Where [1] appears, read: A375.10 cells, 24 h incubation, Emax = amount of residual protein remaining in the cell after compound treatment.

BRAF^V600E protein, sequence (P15056 whole entry V600E): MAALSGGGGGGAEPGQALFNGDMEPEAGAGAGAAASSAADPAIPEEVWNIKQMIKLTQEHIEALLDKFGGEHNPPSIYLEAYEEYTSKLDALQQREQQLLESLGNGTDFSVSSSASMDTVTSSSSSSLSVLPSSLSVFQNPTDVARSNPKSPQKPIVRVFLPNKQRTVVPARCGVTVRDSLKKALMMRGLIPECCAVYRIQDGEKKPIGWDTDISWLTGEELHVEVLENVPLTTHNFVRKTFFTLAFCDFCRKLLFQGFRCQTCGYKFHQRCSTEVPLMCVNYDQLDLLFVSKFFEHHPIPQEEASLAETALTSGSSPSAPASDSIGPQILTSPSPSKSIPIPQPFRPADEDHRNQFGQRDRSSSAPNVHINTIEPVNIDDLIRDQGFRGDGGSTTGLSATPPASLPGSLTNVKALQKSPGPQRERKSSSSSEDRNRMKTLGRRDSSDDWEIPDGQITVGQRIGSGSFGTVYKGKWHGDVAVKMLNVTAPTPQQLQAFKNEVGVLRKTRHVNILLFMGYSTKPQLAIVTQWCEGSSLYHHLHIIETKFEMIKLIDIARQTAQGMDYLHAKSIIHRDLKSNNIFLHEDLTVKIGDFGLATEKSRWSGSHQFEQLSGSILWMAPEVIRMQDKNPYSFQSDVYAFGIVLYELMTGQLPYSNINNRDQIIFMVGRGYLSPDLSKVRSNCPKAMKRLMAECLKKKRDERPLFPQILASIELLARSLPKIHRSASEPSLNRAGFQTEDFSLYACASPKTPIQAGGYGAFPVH

With `CCN(C)S(=O)(=O)Nc1ccc(F)c(C(=O)c2c[nH]c3ncc(-c4cnc(N5CCN(C(=O)CC6CCN(c7ccc8c(N9CCC(=O)NC9=O)nn(C)c8c7)CC6)CC5)nc4)cc23)c1F` [Example 56, 3-(2,4-dioxohexahydropyrimidin-1-yl)-6-[4-[2-[4-[5-[3-[3-[[ethyl(methyl)sulfamoyl]amino]-2,6-difluoro-benzoyl]-1H-pyrrolo[2,3-b]pyridin-5-yl]pyrimidin-2-yl]piperazin-1-yl]-2-oxo-ethyl]-1-piperidyl]-1-methyl-indazole], the DC50 (24 h incubation) worked out at 5.12 nM. Besides, the Emax under setting [1] stood at 14.3%.

Compound `CCN(C)S(=O)(=O)Nc1ccc(F)c(C(=O)c2c[nH]c3ncc(-c4cnc(N5CCN(C(=O)CC6(O)CCN(c7ccc(NC8CCC(=O)NC8=O)cn7)CC6)CC5)nc4)cc23)c1F` (stereo not shown) [Example 57, 5-[2-[4-[2-[1-[5-[(2,6-dioxo-3-piperidyl)amino]-2-pyridyl]-4-hydroxy-4-piperidyl]acetyl]piperazin-1-yl]pyrimidin-5-yl]-3-[3-[[ethyl(methyl)sulfamoyl]amino]-2,6-difluoro-benzoyl]-1H-pyrrolo[2,3-b]pyridine] came in with a DC50 (24 h incubation) of 10.1 nM. For the same compound, the Emax under setting [1] is 18.2%.

`CCN(C)S(=O)(=O)Nc1ccc(F)c(C(=O)c2c[nH]c3ncc(-c4cnc(N5CCN(C(=O)CC6(O)CCN(c7ncc(NC8CCC(=O)NC8=O)cc7F)CC6)CC5)nc4)cc23)c1F` (stereo not shown) [Example 58, 5-[2-[4-[2-[1-[5-[(2,6-dioxo-3-piperidyl)amino]-3-fluoro-2-pyridyl]-4-hydroxy-4-piperidyl]acetyl]piperazin-1-yl]pyrimidin-5-yl]-3-[3-[[ethyl(methyl)sulfamoyl]amino]-2,6-difluoro-benzoyl]-1H-pyrrolo[2,3-b]pyridine]: under “24 h incubation”, the DC50 worked out at 4.25 nM. Moreover, the Emax under setting [1] was 9.42%.

Turning to `CCN(C)S(=O)(=O)Nc1ccc(F)c(C(=O)c2c[nH]c3ncc(-c4cnc(N5CCN(C(=O)CC6(O)CCN(c7ccc(NC8CCC(=O)NC8=O)cc7F)CC6)CC5)nc4)cc23)c1F` (stereo not shown) [Example 59, 5-[2-[4-[2-[1-[4-[(2,6-dioxo-3-piperidyl)amino]-2-fluoro-phenyl]-4-hydroxy-4-piperidyl]acetyl]piperazin-1-yl]pyrimidin-5-yl]-3-[3-[[ethyl(methyl)sulfamoyl]amino]-2,6-difluoro-benzoyl]-1H-pyrrolo[2,3-b]pyridine], half-maximal degradation (24 h incubation) (DC50) was put at 2.41 nM. In addition, the Emax under setting [1] was 8.84%.

`CCN(C)S(=O)(=O)Nc1ccc(F)c(C(=O)c2c[nH]c3ncc(-c4cnc(N5CCN(C(=O)CN6CCC(c7ccc8c(N9CCC(=O)NC9=O)nn(C)c8c7)C(F)(F)C6)CC5)nc4)cc23)c1F` (stereo not shown) [Example 61, 3-(2,4-dioxohexahydropyrimidin-1-yl)-6-[1-[2-[4-[5-[3-[3-[[ethyl(methyl)sulfamoyl]amino]-2,6-difluoro-benzoyl]-1H-pyrrolo[2,3-b]pyridin-5-yl]pyrimidin-2-yl]piperazin-1-yl]-2-oxo-ethyl]-3,3-difluoro-4-piperidyl]-1-methyl-indazole] displayed a DC50 (24 h incubation) of 3.75 nM. The Emax under setting [1] was 7.83%.

As for `CCN(C)S(=O)(=O)Nc1ccc(F)c(C(=O)c2c[nH]c3ncc(-c4cnc(N5CCCN(C(=O)CN6CCC(c7ccc(NC8CCC(=O)NC8=O)cc7)CC6)CC5)nc4)cc23)c1F` (stereo not shown) [Example 63, 5-[2-[4-[2-[4-[4-[(2,6-dioxo-3-piperidyl)amino]phenyl]-1-piperidyl]acetyl]-1,4-diazepan-1-yl]pyrimidin-5-yl]-3-[3-[[ethyl(methyl)sulfamoyl]amino]-2,6-difluoro-benzoyl]-1H-pyrrolo[2,3-b]pyridine], for the setting “24 h incubation”, half-maximal degradation (DC50) was put at 40.2 nM. Under setting [1], the Emax was 11.8%.

`CCN(C)S(=O)(=O)Nc1ccc(F)c(C(=O)c2c[nH]c3ncc(-c4cnc(N5CC6(CN(C(=O)CN7CCC(c8ccc(NC9CCC(=O)NC9=O)cc8)CC7)C6)C5)nc4)cc23)c1F` (stereo not shown) [Example 64, 5-[2-[2-[2-[4-[4-[(2,6-dioxo-3-piperidyl)amino]phenyl]-1-piperidyl]acetyl]-2,6-diazaspiro[3.3]heptan-6-yl]pyrimidin-5-yl]-3-[3-[[ethyl(methyl)sulfamoyl]amino]-2,6-difluoro-benzoyl]-1H-pyrrolo[2,3-b]pyridine] registered a DC50 (24 h incubation) of 7.21 nM. The Emax under setting [1] came out at 9.33%.

`CCN(C)S(=O)(=O)Nc1ccc(F)c(C(=O)c2c[nH]c3ncc(-c4cnc(N5CCN(C(=O)CN6CCC(c7ccc(NC8CCC(=O)NC8=O)cc7)CC6)CC5)nc4)c(C)c23)c1F` (stereo not shown) [Example 65, 5-[2-[4-[2-[4-[4-[(2,6-dioxo-3-piperidyl)amino]phenyl]-1-piperidyl]acetyl]piperazin-1-yl]pyrimidin-5-yl]-3-[3-[[ethyl(methyl)sulfamoyl]amino]-2,6-difluoro-benzoyl]-4-methyl-1H-pyrrolo[2,3-b]pyridine]: it took 9.97 nM to reach half-maximal degradation (24 h incubation) (DC50). Moreover, the Emax under setting [1] was 3.79%.

In turn, `CCN(C)S(=O)(=O)Nc1ccc(F)c(C(=O)c2c[nH]c3ncc(-c4cnc(N5CCN(C(=O)CN6CCC(c7ccc(NC8CCC(=O)NC8=O)cc7)CC6)CC5)nc4)c(F)c23)c1F` (stereo not shown) [Example 66, 5-[2-[4-[2-[4-[4-[(2,6-dioxo-3-piperidyl)amino]phenyl]-1-piperidyl]acetyl]piperazin-1-yl]pyrimidin-5-yl]-3-[3-[[ethyl(methyl)sulfamoyl]amino]-2,6-difluoro-benzoyl]-4-fluoro-1H-pyrrolo[2,3-b]pyridine] registered a DC50 (24 h incubation) of 3.06 nM. Under setting [1], the Emax stood at 8.1%.

For the setting “24 h incubation”, `CCN(C)S(=O)(=O)Nc1ccc(F)c(C(=O)c2c[nH]c3ncc(-c4ccc(N5CCN(C(=O)CN6CCC(c7ccc(O[C@H]8CCC(=O)NC8=O)cc7)CC6)CC5)nc4)cc23)c1F` [Example 73, 5-[6-[4-[2-[4-[4-[[(3S)-2,6-dioxo-3-piperidyl]oxy]phenyl]-1-piperidyl]acetyl]piperazin-1-yl]-3-pyridyl]-3-[3-[[ethyl(methyl)sulfamoyl]amino]-2,6-difluoro-benzoyl]-1H-pyrrolo[2,3-b]pyridine] displayed a DC50 of 12.3 nM. The “HiBit 24 h Emax” value under setting [1] turned out to be 8.05%.

Compound `CCN(C)S(=O)(=O)Nc1ccc(F)c(C(=O)c2c[nH]c3ncc(-c4ccc(N5CCN(C(=O)CN6CCC(c7ccc(O[C@@H]8CCC(=O)NC8=O)cc7)CC6)CC5)nc4)cc23)c1F` [Example 74, 5-[6-[4-[2-[4-[4-[[(3R)-2,6-dioxo-3-piperidyl]oxy]phenyl]-1-piperidyl]acetyl]piperazin-1-yl]-3-pyridyl]-3-[3-[[ethyl(methyl)sulfamoyl]amino]-2,6-difluoro-benzoyl]-1H-pyrrolo[2,3-b]pyridine] came in with a DC50 (24 h incubation) of 32.5 nM. Besides, the “HiBit 24 h Emax” value under setting [1] came out at 9.07%.

In the case of `CCN(C)S(=O)(=O)Nc1ccc(F)c(C(=O)c2c[nH]c3ncc(-c4ccc(N5CCN(C(=O)CN6CCC(Nc7ccc8c(C9CCC(=O)NC9=O)nn(C)c8c7)CC6)CC5)nc4)cc23)c1F` (stereo not shown) [Example 75, 3-(2,6-dioxo-3-piperidyl)-6-[[1-[2-[4-[5-[3-[3-[[ethyl(methyl)sulfamoyl]amino]-2,6-difluoro-benzoyl]-1H-pyrrolo[2,3-b]pyridin-5-yl]-2-pyridyl]piperazin-1-yl]-2-oxo-ethyl]-4-piperidyl]amino]-1-methyl-indazole], the DC50 (24 h incubation) was 6.26 nM. In addition, the Emax under setting [1] came to 11.6%.

As to `CCN(C)S(=O)(=O)Nc1ccc(F)c(C(=O)c2c[nH]c3ncc(-c4ccc(N5CCN(C(=O)CC6(O)CCN(c7ccc(NC8CCC(=O)NC8=O)cc7)CC6)CC5)nc4)cc23)c1F` (stereo not shown) [Example 76, 5-[6-[4-[2-[1-[4-[(2,6-dioxo-3-piperidyl)amino]phenyl]-4-hydroxy-4-piperidyl]acetyl]piperazin-1-yl]-3-pyridyl]-3-[3-[[ethyl(methyl)sulfamoyl]amino]-2,6-difluoro-benzoyl]-1H-pyrrolo[2,3-b]pyridine], it took 7.81 nM to reach half-maximal degradation (24 h incubation) (DC50). The Emax under setting [1] is 14.2%.

For the compound `CCN(C)S(=O)(=O)Nc1ccc(F)c(C(=O)c2c[nH]c3ncc(-c4ccc(N5CCN(C(=O)CC6(O)CCN(c7ccc(NC8CCC(=O)NC8=O)cn7)CC6)CC5)nc4)cc23)c1F` (stereo not shown) [Example 78, 5-[6-[4-[2-[1-[5-[(2,6-dioxo-3-piperidyl)amino]-2-pyridyl]-4-hydroxy-4-piperidyl]acetyl]piperazin-1-yl]-3-pyridyl]-3-[3-[[ethyl(methyl)sulfamoyl]amino]-2,6-difluoro-benzoyl]-1H-pyrrolo[2,3-b]pyridine], the DC50 (24 h incubation) came out at 9.89 nM. Further, under setting [1], the Emax was found to be 23.3%.

Under “24 h incubation”, `CCN(C)S(=O)(=O)Nc1ccc(F)c(C(=O)c2c[nH]c3ncc(-c4ccc(N5CCN(C(=O)CC6(O)CCN(c7ccc(NC8CCC(=O)NC8=O)cc7F)CC6)CC5)nc4)cc23)c1F` (stereo not shown) [Example 79, 5-[6-[4-[2-[1-[4-[(2,6-dioxo-3-piperidyl)amino]-2-fluoro-phenyl]-4-hydroxy-4-piperidyl]acetyl]piperazin-1-yl]-3-pyridyl]-3-[3-[[ethyl(methyl)sulfamoyl]amino]-2,6-difluoro-benzoyl]-1H-pyrrolo[2,3-b]pyridine] displayed a DC50 of 2.13 nM. For the same compound, under setting [1], the Emax was determined as 9.51%.

For `CCN(C)S(=O)(=O)Nc1ccc(F)c(C(=O)c2c[nH]c3ncc(-c4ccc(N5CCN(C(=O)CC6(O)CCN(c7ncc(NC8CCC(=O)NC8=O)cc7F)CC6)CC5)nc4)cc23)c1F` (stereo not shown) [Example 80, 5-[6-[4-[2-[1-[5-[(2,6-dioxo-3-piperidyl)amino]-3-fluoro-2-pyridyl]-4-hydroxy-4-piperidyl]acetyl]piperazin-1-yl]-3-pyridyl]-3-[3-[[ethyl(methyl)sulfamoyl]amino]-2,6-difluoro-benzoyl]-1H-pyrrolo[2,3-b]pyridine], half-maximal degradation (24 h incubation) (DC50) was put at 2.97 nM. Also, under setting [1], the Emax was 9.93%.

On to `CCN(C)S(=O)(=O)Nc1ccc(F)c(C(=O)c2c[nH]c3ncc(-c4cnc(N5CCN(C(=O)CN6CCC(c7ccc(NC8CCC(=O)NC8=O)cc7)CC6)CC5)c(C#N)c4)cc23)c1F` (stereo not shown) [Example 82, 5-[5-cyano-6-[4-[2-[4-[4-[(2,6-dioxo-3-piperidyl)amino]phenyl]-1-piperidyl]acetyl]piperazin-1-yl]-3-pyridyl]-3-[3-[[ethyl(methyl)sulfamoyl]amino]-2,6-difluoro-benzoyl]-1H-pyrrolo[2,3-b]pyridine], for which the Emax was 7.6%. The compound also gave a DC50 (24 h incubation) of 7.57 nM.
